Data taken from publication PMC10946451, “Engineering a Carboxyl Methyltransferase for the Formation of a Furan‐Based Bioplastic Precursor” (Chemsuschem, 2023).

Biological target: T1, FtpM (WT FtpM) (Aspergillus fumigatus, UniProt Q4WZ45)
T1 construct: gene AFUA_3G15280; codon-optimised gene in pET-based golden gate vector, C-terminal His tag, expressed in E. coli, HisTrap purified; monomer and dimer modelled by AlphaFold 2
T1 sequence (Q4WZ45 1-282): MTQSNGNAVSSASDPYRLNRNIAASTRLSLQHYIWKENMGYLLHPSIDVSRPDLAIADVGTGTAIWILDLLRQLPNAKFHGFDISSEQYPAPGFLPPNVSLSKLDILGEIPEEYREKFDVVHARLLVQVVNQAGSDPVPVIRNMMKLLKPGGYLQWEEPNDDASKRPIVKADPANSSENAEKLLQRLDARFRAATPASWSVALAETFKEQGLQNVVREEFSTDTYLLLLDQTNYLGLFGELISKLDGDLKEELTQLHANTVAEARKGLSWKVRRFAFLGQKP
Assay: steady-state kinetics of carboxyl methylation (Michaelis-Menten; previously reported method)
Format: biochemical
Details: co-substrate SAM, kinetic assay conditions not printed (reactions: 50 mM MES pH 6.0, 25 °C)

Row | Structure (SMILES) | Km (first methylation) [µM] | Km (second methylation) [µM]
1 | O=C(O)c1ccc(C(=O)O)o1 [compound 2, 2,5-furandicarboxylic acid] | 520 | –
2 | COC(=O)c1ccc(C(=O)O)o1 [compound 3, FMME] | – | 1400
